Values quoted from earlier work in US20130237476A1, “ADIPOSE TISSUE TARGETED PEPTIDES” (ABLARIS THERAPEUTICS INC., priority 2012, published 2013).
Where no end group is shown, it is not given here. [ ]: non-standard residue; d: D form. Ex = not defined here

Tests used:
prohibitin = conditions: Kolonin et al., Nat Med 2004; prohibitin expressed in adipose tissue
[1] = system: visceral adipose tissue (white fat)
[2] = diastereomeric peptide with 5th and 9th residues as L-analogs; comparator not stated

CKGGRAKDC [adipose targeting peptide]
association with prohibitin (prohibitin): associates with prohibitin

CKGGRAKDC-GG-D(KLAKLAKKLAKLAK) (CKGGRAKDCGG[dK][dL][dA][dK][dL][dA][dK][dK][dL][dA][dK][dL][dA][dK]; cysteine pairing not given here) [ABL-1, targeting peptide operably linked to an apoptotic therapeutic peptide]
obesity reversal ([1]; animal models, after resorption of established white fat): rapid obesity reversal | ablation of visceral adipose tissue ([1]; targets prohibitin in adipose vascular endothelial cells): cause ablation of visceral adipose tissue

D,L-(KExAKExAK)2 (K[Ex]AK[Ex]AKK[Ex]AK[Ex]AK; reading uncertain; also: D/L diastereomeric residues, positions not given here) [diasteriomeric peptide in which the 5th and 9th residues were replaced with L-analogs to disrupt alpha helicity]
hemolytic activity [2]: greatly reduced
